Broadly, the DC50 is the concentration giving 50% degradation. Broadly, the Dmax is the largest share of the target that was removed.

Bounds are passed on as bounds.

The results in this text go back to patent publication US12539292B2, “BRM targeting compounds and associated methods of use” (Arvinas Operations, Inc., priority 2018, dated 2026).

The experiment deals with T1, BRM (Homo sapiens, UniProt P51531).
T1 construct: In-Cell Western Screen of BRM Degradation in SW1573 Cells; endogenous in cells; host or cells: SW1573
Nature of the experiment: In-cell Western screen of BRM degradation in SW1573 cells (Dmax and DC50). The format is cell-based. Conditions: BRM degradation, SW1573 cells; for DC50: read-out: DC50; for Dmax: when tested at the top concentration of between 0.3 and 10 μM, read-out: Dmax (%) (% degraded). An outline of the steps: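 SW1573 cells were treated with compound overnight (18-20 h; final DMSO 0.1%), then fixed in 4% PFA, permeabilized with Triton X-100 and blocked. BRM was detected by in-cell Western using 800 nm anti-rabbit and 680 nm anti-mouse secondaries, and Dmax and DC50 were derived from the LI-COR Odyssey signal.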

T1 sequence (P51531 whole entry): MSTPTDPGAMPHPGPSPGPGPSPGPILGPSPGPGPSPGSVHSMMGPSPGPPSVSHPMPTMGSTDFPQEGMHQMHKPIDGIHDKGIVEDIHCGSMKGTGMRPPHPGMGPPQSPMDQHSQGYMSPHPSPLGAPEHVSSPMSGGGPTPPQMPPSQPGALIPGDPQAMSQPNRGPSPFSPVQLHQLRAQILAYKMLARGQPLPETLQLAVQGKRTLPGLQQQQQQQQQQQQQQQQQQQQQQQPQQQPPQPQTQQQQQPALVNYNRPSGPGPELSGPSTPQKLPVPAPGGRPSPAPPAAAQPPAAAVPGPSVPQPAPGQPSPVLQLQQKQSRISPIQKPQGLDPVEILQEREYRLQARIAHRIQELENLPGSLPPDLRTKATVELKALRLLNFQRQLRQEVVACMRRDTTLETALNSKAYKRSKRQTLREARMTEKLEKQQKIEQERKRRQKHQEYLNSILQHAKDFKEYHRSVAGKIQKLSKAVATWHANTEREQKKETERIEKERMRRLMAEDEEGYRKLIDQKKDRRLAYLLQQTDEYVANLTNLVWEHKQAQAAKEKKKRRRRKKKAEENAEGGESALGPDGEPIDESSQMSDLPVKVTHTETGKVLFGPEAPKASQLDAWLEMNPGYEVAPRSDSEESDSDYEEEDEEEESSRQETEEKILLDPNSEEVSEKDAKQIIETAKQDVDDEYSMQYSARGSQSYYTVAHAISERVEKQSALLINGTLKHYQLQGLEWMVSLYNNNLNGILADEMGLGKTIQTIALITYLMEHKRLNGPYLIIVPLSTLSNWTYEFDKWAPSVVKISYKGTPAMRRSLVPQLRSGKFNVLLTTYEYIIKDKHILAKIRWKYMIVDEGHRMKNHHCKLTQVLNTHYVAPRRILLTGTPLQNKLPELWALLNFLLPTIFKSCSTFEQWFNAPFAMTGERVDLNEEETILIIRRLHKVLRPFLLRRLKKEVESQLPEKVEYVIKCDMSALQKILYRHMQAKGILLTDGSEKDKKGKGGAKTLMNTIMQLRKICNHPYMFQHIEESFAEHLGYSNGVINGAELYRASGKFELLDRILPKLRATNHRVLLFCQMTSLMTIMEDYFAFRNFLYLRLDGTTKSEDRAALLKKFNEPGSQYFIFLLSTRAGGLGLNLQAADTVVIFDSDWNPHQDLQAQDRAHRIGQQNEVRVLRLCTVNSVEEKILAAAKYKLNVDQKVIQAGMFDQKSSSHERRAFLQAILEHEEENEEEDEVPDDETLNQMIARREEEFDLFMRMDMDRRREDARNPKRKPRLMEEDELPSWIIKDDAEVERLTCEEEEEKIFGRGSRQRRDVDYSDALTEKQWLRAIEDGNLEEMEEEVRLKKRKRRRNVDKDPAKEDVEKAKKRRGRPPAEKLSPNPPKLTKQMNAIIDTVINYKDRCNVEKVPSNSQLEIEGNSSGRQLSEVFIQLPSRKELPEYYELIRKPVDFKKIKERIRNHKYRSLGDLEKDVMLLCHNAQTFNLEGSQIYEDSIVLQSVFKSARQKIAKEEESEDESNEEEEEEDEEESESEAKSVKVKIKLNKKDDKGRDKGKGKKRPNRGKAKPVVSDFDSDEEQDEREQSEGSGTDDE

For the molecule `Cc1ncsc1-c1ccc([C@H](C)NC(=O)[C@@H]2C[C@@H](O)CN2C(=O)[C@@H](c2cc(OCCOCCOCCCCN3CC4(CCN(c5cc(-c6ccccc6O)nnc5N)CC4)C3)no2)C(C)C)cc1` [compound 72, (2S,4R)-1-((R)-2-(3-(2-(2-(4-(7-(3-amino-6-(2-hydroxyphenyl)pyridazin-4-yl)-2,7-diazaspiro[3.5]nonan-2-yl)butoxy)ethoxy)ethoxy)isoxazol-5-yl)-3-methylbutanoyl)-4-hydroxy-N-((S)-1-(4-(4-methylthiazol-5-yl)phenyl)ethyl)pyrrolidine-2-carboxamide], the half-maximal degradation concentration (DC50) lay within 10 to 30 nM and the Dmax was more than 75%.
On to `Cc1ncsc1-c1ccc([C@H](C)NC(=O)[C@@H]2C[C@@H](O)CN2C(=O)[C@H](c2cc(OCCOCCOCCCCN3CCC4(CCN(c5cc(-c6ccccc6O)nnc5N)CC4)C3)no2)C(C)C)cc1` [compound 73, (2S,4R)-1-((S)-2-(3-(2-(2-(4-(8-(3-amino-6-(2-hydroxyphenyl)pyridazin-4-yl)-2,8-diazaspiro[4.5]decan-2-yl)butoxy)ethoxy)ethoxy)isoxazol-5-yl)-3-methylbutanoyl)-4-hydroxy-N-((S)-1-(4-(4-methylthiazol-5-yl)phenyl)ethyl)pyrrolidine-2-carboxamide], for which the half-maximal degradation concentration (DC50) was more than 30 nM.
With `Cc1ncsc1-c1ccc([C@H](C)NC(=O)[C@@H]2C[C@@H](O)CN2C(=O)[C@@H](c2cc(OCCOCCOCCCCN3CCC4(CCN(c5cc(-c6ccccc6O)nnc5N)CC4)C3)no2)C(C)C)cc1` [compound 74, (2S,4R)-1-((R)-2-(3-(2-(2-(4-(8-(3-amino-6-(2-hydroxyphenyl)pyridazin-4-yl)-2,8-diazaspiro[4.5]decan-2-yl)butoxy)ethoxy)ethoxy)isoxazol-5-yl)-3-methylbutanoyl)-4-hydroxy-N-((S)-1-(4-(4-methylthiazol-5-yl)phenyl)ethyl)pyrrolidine-2-carboxamide], the DC50 lay in the range of 10 to 30 nM and the Dmax is more than 75%.
With `Cc1nccn1-c1ccc([C@H](C)NC(=O)[C@@H]2C[C@@H](O)CN2C(=O)[C@H](c2cc(OCCN3CCN(CCOc4cc(N5C6CCC5CN(c5cc(-c7ccccc7O)nnc5N)C6)ccn4)CC3)no2)C(C)C)cc1` [compound 75, (2S,4R)-1-((2S)-2-(3-(2-(4-(2-((4-(3-(3-amino-6-(2-hydroxyphenyl)pyridazin-4-yl)-3,8-diazabicyclo[3.2.1]octan-8-yl)pyridin-2-yl)oxy)ethyl)piperazin-1-yl)ethoxy)isoxazol-5-yl)-3-methylbutanoyl)-4-hydroxy-N-((S)-1-(4-(2-methyl-1H-imidazol-1-yl)phenyl)ethyl)pyrrolidine-2-carboxamide], the DC50 fell in the range of 10 to 30 nM and the Dmax was more than 75%.
For `Cc1nccn1-c1ccc([C@H](C)NC(=O)[C@@H]2C[C@@H](O)CN2C(=O)[C@@H](c2cc(OCCN3CCN(CCOc4cc(N5C6CCC5CN(c5cc(-c7ccccc7O)nnc5N)C6)ccn4)CC3)no2)C(C)C)cc1` [compound 76, (2S,4R)-1-((2R)-2-(3-(2-(4-(2-((4-(3-(3-amino-6-(2-hydroxyphenyl)pyridazin-4-yl)-3,8-diazabicyclo[3.2.1]octan-8-yl)pyridin-2-yl)oxy)ethyl)piperazin-1-yl)ethoxy)isoxazol-5-yl)-3-methylbutanoyl)-4-hydroxy-N-((S)-1-(4-(2-methyl-1H-imidazol-1-yl)phenyl)ethyl)pyrrolidine-2-carboxamide], the DC50 was less than 2.5 nM and the Dmax was more than 75%.
On to `Cc1ncsc1-c1ccc([C@H](C)NC(=O)[C@@H]2C[C@@H](O)CN2C(=O)[C@@H](c2cc(OCCOc3ccc(C(C)n4cc(-c5cc(-c6ccccc6O)nnc5N)cn4)cc3)no2)C(C)C)cc1` (stereo partly drawn) [compound 81, (2S,4R)-1-((2R)-2-(3-(2-(4-(1-(4-(3-amino-6-(2-hydroxyphenyl)pyridazin-4-yl)-1H-pyrazol-1-yl)ethyl)phenoxy)ethoxy)isoxazol-5-yl)-3-methylbutanoyl)-4-hydroxy-N-((S)-1-(4-(4-methylthiazol-5-yl)phenyl)ethyl)pyrrolidine-2-carboxamide], for which the DC50 is less than 2.5 nM and the greatest degradation seen (Dmax) was more than 75%.
As for `Cc1ncsc1-c1ccc([C@H](C)NC(=O)[C@@H]2C[C@@H](O)CN2C(=O)[C@@H](c2cc(OCCOc3ccc(C(C)n4cc(-c5cc(-c6ccccc6O)nnc5N)cn4)cn3)no2)C(C)C)cc1` (stereo partly drawn) [compound 82, (2S,4R)-1-((2R)-2-(3-(2-((5-(1-(4-(3-amino-6-(2-hydroxyphenyl)pyridazin-4-yl)-1H-pyrazol-1-yl)ethyl)pyridin-2-yl)oxy)ethoxy)isoxazol-5-yl)-3-methylbutanoyl)-4-hydroxy-N-((S)-1-(4-(4-methylthiazol-5-yl)phenyl)ethyl)pyrrolidine-2-carboxamide], the 50% degradation concentration (DC50) is less than 2.5 nM and the Dmax is more than 75%.
Taken in the same sequence, the figures for `Cc1ncsc1-c1ccc([C@H](C)NC(=O)[C@@H]2C[C@@H](O)CN2C(=O)[C@@H](c2cc(OCCN3CCN(Cc4ccc(C(C)n5cc(-c6cc(-c7ccccc7O)nnc6N)cn5)cc4)CC3)no2)C(C)C)cc1` (stereo partly drawn) [compound 83, (2S,4R)-1-((2R)-2-(3-(2-(4-(4-(1-(4-(3-amino-6-(2-hydroxyphenyl)pyridazin-4-yl)-1H-pyrazol-1-yl)ethyl)benzyl)piperazin-1-yl)ethoxy)isoxazol-5-yl)-3-methylbutanoyl)-4-hydroxy-N-((S)-1-(4-(4-methylthiazol-5-yl)phenyl)ethyl)pyrrolidine-2-carboxamide] were less than 2.5 nM and more than 75%.
Turning to `Cc1ncsc1-c1ccc([C@H](C)NC(=O)[C@@H]2C[C@@H](O)CN2C(=O)[C@@H](c2cc(OC/C=C/c3ccc(O[C@H]4C[C@H](Oc5cc(N6C7CCC6CN(c6cc(-c8ccccc8O)nnc6N)C7)ccn5)C4)cn3)no2)C(C)C)cc1` [compound 86, (2S,4R)-1-((2R)-2-(3-(((E)-3-(5-((1r,3R)-3-((4-(3-(3-amino-6-(2-hydroxyphenyl)pyridazin-4-yl)-3,8-diazabicyclo[3.2.1]octan-8-yl)pyridin-2-yl)oxy)cyclobutoxy)pyridin-2-yl)allyl)oxy)isoxazol-5-yl)-3-methylbutanoyl)-4-hydroxy-N-((S)-1-(4-(4-methylthiazol-5-yl)phenyl)ethyl)pyrrolidine-2-carboxamide], the DC50 is less than 2.5 nM and the Dmax is more than 75%.
Taken in the same sequence, the figures for `Cc1ncsc1-c1ccc([C@H](C)NC(=O)[C@@H]2C[C@@H](O)CN2C(=O)[C@@H](c2cc(OCCN3CCN(CCCCN4CCOC5(CCN(c6cc(-c7ccccc7O)nnc6N)CC5)C4)CC3)no2)C(C)C)cc1` [compound 91, (2S,4R)-1-((R)-2-(3-(2-(4-(4-(9-(3-amino-6-(2-hydroxyphenyl)pyridazin-4-yl)-1-oxa-4,9-diazaspiro[5.5]undecan-4-yl)butyl)piperazin-1-yl)ethoxy)isoxazol-5-yl)-3-methylbutanoyl)-4-hydroxy-N-((S)-1-(4-(4-methylthiazol-5-yl)phenyl)ethyl)pyrrolidine-2-carboxamide] were less than 2.5 nM and more than 75%.
